Assay results published in US11071730B2, “Substituted 6-azabenzimidazole compounds” (Gilead Sciences, Inc., priority 2018, dated 2021).

Biological target: human HPK1 (MAP4K1) (Homo sapiens (Human), UniProt Q92918)
Experiment: HPK1 IC50 Assay (TR-FRET biochemical kinase assay, STK S1 peptide substrate)
Conditions: recombinant human HPK1 kinase domain 0.15 nM, 10 μM ATP, 1 μM STK S1 peptide; geometric mean
Protocol: The enzymatic activity of human HPK1 (MAP4K1) was monitored in a biochemical assay in the presence or absence of compounds and using a synthetic peptide substrate. An increase in phosphorylation of the peptide by HPK1 was indicative of its kinase activity.
Recombinant HPK1 kinase domain produced via baculovirus infection of insect cells was obtained from Proteros (Proteros Biostructures #PR-0322) and was pre-activated in the presence of 2 mM ATP (Sigma-Aldrich, cat #GE27-2056-01) and 2 mM magnesium chloride for 16 hours at 4° C. The protein reaction mixture was then loaded to a desalting column (Thermo Fisher Scientific, Cat #89889) to remove excess ATP. HPK1 was eluted with buffer containing 20 mM Tris (2-Amino-2-(hydroxymethyl)propane-1,3-diol) pH 8.0, 150 mM NaCl, 2 mM dithiothreitol and 5% glycerol, and was frozen at −80° C. for later use.
Ten nanoliters of test compounds dissolved in DMSO at various concentrations were dispensed into a 384-well ProxiPlate (PerkinElmer #6008289). Five microliters of a solution of recombinant HPK1 diluted in HPK1 kinase assay buffer (50 mM BES [N,N-Bis(2-hydroxyethyl)-2-aminoethanesulfonic acid], pH 7.0; 10 mM magnesium chloride; 0.01% Triton X-100; 1 mM dithiothreitol; 0.01% bovine serum albumin; 0.1 mM sodium orthovanadate) was added to the compound-containing plate and was incubated for 15 minutes at 25° C. Five microliters of a mixture of ATP (Sigma-Aldrich #A6559) and peptide substrate STK S1 (Cisbio #61ST1BLC) diluted in HPK1 kinase assay buffer was then added to start the reaction. Final concentrations were 0.15 nM for HPK1, 10 μM for ATP, and 1 μM for the STK S1 peptide substrate. The reaction mixture was incubated at 25° C. for 3 hours and was stopped with the addition of 10 μl of an EDTA (Ethylenediaminetetraacetic acid)-containing detection buffer (Cisbio #62SDBRDF) supplemented with Europium cryptate-labeled anti-phospho-serine/threonine antibodies (Cisbio #62ST1PEJ) and XL665-labeled streptavidin (Cisbio #610SAXLG). The mixture was incubated for 16 hours at room temperature and peptide phosphorylation was measured by time-resolved fluorescence energy transfer (665 nm/620 nm) on an Envision plate reader (PerkinElmer).
Data in Table 1 were normalized based on positive (staurosporine) and negative (DMSO) controls. Least squares curve fittings were performed using a four-parameter variable slope nonlinear regression model. IC50 is defined as the concentration of compound required to inhibit 50% of maximum phosphorylation. IC50 values from multiple experiments were averaged by geometric mean and the standard deviation was calculated.

human HPK1 (MAP4K1), sequence (Q92918 17-274): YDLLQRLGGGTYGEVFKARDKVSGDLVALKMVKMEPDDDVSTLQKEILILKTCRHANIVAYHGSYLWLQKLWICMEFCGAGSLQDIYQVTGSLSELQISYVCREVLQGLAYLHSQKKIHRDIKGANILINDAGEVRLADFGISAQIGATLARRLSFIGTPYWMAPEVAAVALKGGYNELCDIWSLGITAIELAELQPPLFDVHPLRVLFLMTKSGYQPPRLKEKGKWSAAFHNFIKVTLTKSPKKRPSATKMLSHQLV

IC50	Compound
0.3 nM	CC(C)n1cnc2cc(-c3ccc4c(c3)N([C@H]3C[C@@H](N5CCCCC5)C3)C(=O)C43CCN(C(=O)C4COC4)CC3)nc(Nc3ccncc3F)c21 [Example 144]
0.3 nM	CC(C)n1cnc2cc(-c3ccc4c(c3)N([C@H]3C[C@@H](N5CCCCC5)C3)C(=O)C43CCN(C(=O)C(C)(C)CO)CC3)nc(Nc3ccncc3F)c21 [Example 106, 6-(4-((3-fluoropyridin-4-yl)amino)-3-isopropyl-3H-imidazo[4,5-c]pyridin-6-yl)-1′-(3-hydroxy-2,2-dimethylpropanoyl)-1-((1s,3s)-3-(piperidin-1-yl)cyclobutyl)spiro[indoline-3,4′-piperidin]-2-one]
0.1 nM	CC(=O)N1CCC2(CC1)C(=O)N([C@H]1C[C@@H](N3C[C@H]4CC[C@H]4C3)C1)c1cc(-c3cc4ncn(C(C)C)c4c(Nc4ccncc4F)n3)ccc12 [Example 172]
0.2 nM	CCC1(C(=O)N2CCC3(CC2)C(=O)N([C@H]2C[C@@H](N4CCCCC4)C2)c2cc(-c4cc5ncn(C(C)C)c5c(Nc5ccncc5F)n4)ccc23)COC1 [Example 138]
0.07 nM	CC(C)n1cnc2cc(-c3ccc4c(c3)N([C@H]3C[C@@H](N5CC6CCC(C6)C5)C3)C(=O)C43CCN(C(=O)CO)CC3)nc(Nc3ccncc3F)c21 [Example 128]
0.2 nM	CC(C)[C@H](O)C(=O)N1CCC2(CC1)C(=O)N([C@H]1C[C@@H](N3CCC(C)(C)C3)C1)c1cc(-c3cc4ncn(C(C)C)c4c(Nc4ccncc4F)n3)ccc12 [Example 119]
0.1 nM	CC(C)n1cnc2cc(-c3ccc4c(c3)N([C@H]3C[C@@H](N5CCCCC5)C3)C(=O)C43CCN(C(=O)[C@@H](C)O)CC3)nc(Nc3ccnc(F)c3F)c21 [Example 102]
0.4 nM	CC(C)n1cnc2cc(-c3ccc4c(c3)N([C@H]3C[C@@H](N5CCCCC5)C3)C(=O)C43CCN(C(=O)C4(C)COC4)CC3)nc(Nc3ccncc3F)c21 [Example 147]
0.07 nM	CC(C)n1cnc2cc(-c3ccc4c(c3)N([C@H]3C[C@@H](N5C[C@H]6CC[C@H]6C5)C3)C(=O)C43CCN(C(=O)[C@@H](C)O)CC3)nc(Nc3ccncc3F)c21 [Example 113]
0.3 nM	CC(=O)N1CCC2(CC1)C(=O)N([C@H]1C[C@@H](N3CC4CCC3CC4)C1)c1cc(-c3cc4ncn(C(C)C)c4c(Nc4ccncc4F)n3)ccc12 [Example 193]

Second part, the compound before the results:

Compound	IC50
CC(C)n1cnc2cc(-c3ccc4c(c3)N([C@H]3C[C@@H](N5CCCC5)C3)C(=O)C4(C)C)nc(Nc3ccncc3F)c21 [Example 188]	3.2 nM
CC(C)n1cnc2cc(-c3ccc4c(c3)N([C@H]3C[C@@H](N5CCCCC5)C3)C(=O)C4(C)O)nc(Nc3ccnc(F)c3F)c21 (some centres unmarked) [Example 101]	0.3 nM
CC(C)n1cnc2cc(-c3ccc4c(c3)N([C@H]3C[C@@H](N5CC(C)(C)C5)C3)C(=O)C4(C)C)nc(Nc3cc(CO)ncc3F)c21 [Example 100]	3.1 nM
CCC(=O)N1CCC2(CC1)C(=O)N([C@H]1C[C@@H](N3CCCCC3)C1)c1cc(-c3cc4ncn(CC)c4c(Nc4ccncc4F)n3)ccc12 [Example 168]	2.6 nM
Cc1cc(Nc2nc(-c3ccc4c(c3)N([C@H]3C[C@@H](N5CCC(C)(C)C5)C3)C(=O)C43CCN(C(=O)C(C)(C)CO)CC3)cc3ncn(C(C)C)c23)c(F)cn1 [Example 131]	0.6 nM
CC(C)n1cnc2cc(-c3ccc4c(c3)N([C@H]3C[C@@H](N5CCC(C)(C)C5)C3)C(=O)C43CCN(C(=O)c4cocn4)CC3)nc(Nc3ccncc3F)c21 [Example 154]	0.3 nM
CC(C)n1cnc2cc(-c3ccc4c(c3)N([C@H]3C[C@@H](N5CCC(C)(C)C5)C3)C(=O)C43CCN(C(=O)c4ncco4)CC3)nc(Nc3ccncc3F)c21 [Example 159]	0.4 nM

Same assay, conditions: recombinant human HPK1 kinase domain 0.15 nM, 10 μM ATP, 1 μM STK S1 peptide; geometric mean of multiple experiments

IC50	Compound
0.2 nM	CC(=O)N1CCC2(CC1)C(=O)N([C@H]1C[C@@H](N3CC4CCC(C3)O4)C1)c1cc(-c3cc4ncn(C(C)C)c4c(Nc4ccncc4F)n3)ccc12 [Example 34]
0.4 nM	CC(C)n1cnc2cc(-c3ccc4c(c3)N([C@H]3C[C@@H](N5CCC(C)(C)C5)C3)C(=O)C43CCN(C(=O)C(C)(C)O)CC3)nc(Nc3ccncc3F)c21 [Example 4]
0.5 nM	CC(C)n1cnc2cc(-c3ccc4c(c3)N([C@H]3C[C@@H](N5CCCCC5)C3)C(=O)C43CCN(C(=O)[C@@H](C)O)CC3)nc(Nc3ccncc3F)c21 [Example 2]
0.2 nM	CC(C)n1cnc2cc(-c3ccc4c(c3)N([C@H]3C[C@@H](N5C[C@@H](C)[C@@H](C)C5)C3)C(=O)C43CCN(C(=O)[C@@H]4CCCO4)CC3)nc(Nc3ccncc3F)c21 [Example 9]
0.4 nM	CC(=O)N1CCC2(CC1)C(=O)N([C@H]1C[C@@H](N3CCC(C)(C)C3)C1)c1cc(-c3cc4ncn(C(C)C)c4c(Nc4ccncc4F)n3)ccc12 [Example 29]
0.2 nM	CC(C)n1cnc2cc(-c3ccc4c(c3)N([C@H]3C[C@@H](N5CCCCC5)C3)C(=O)C43CCN(C(=O)C4(C)CCO4)CC3)nc(Nc3ccncc3F)c21 (some centres unmarked) [Example 11]
0.5 nM	CC(C)n1cnc2cc(-c3ccc4c(c3)N([C@H]3C[C@@H](N5CCC(C)(C)C5)C3)C(=O)C43CCN(C(=O)C4COC4)CC3)nc(Nc3ccncc3F)c21 [Example 76]
0.2 nM	CC(C)n1cnc2cc(-c3ccc4c(c3)N([C@H]3C[C@@H](N5CCC(C)(C)C5)C3)C(=O)C43CCN(C(=O)[C@@H]4CCCO4)CC3)nc(Nc3ccncc3F)c21 [Example 13]
0.09 nM	CC(C)n1cnc2cc(-c3ccc4c(c3)N([C@H]3C[C@@H](N5CCC(C)(C)C5)C3)C(=O)C43CCN(C(=O)C4CCCCO4)CC3)nc(Nc3ccncc3F)c21 (some centres unmarked) [Example 24]
0.2 nM	CC(C)n1cnc2cc(-c3ccc4c(c3)N([C@H]3C[C@@H](N5CCC(C)(C)C5)C3)C(=O)C43CCN(C(=O)C4CCCOC4)CC3)nc(Nc3ccncc3F)c21 (some centres unmarked) [Example 25]

The next lines start with the compound.

Compound	IC50
CC(C)n1cnc2cc(-c3ccc4c(c3)N([C@H]3C[C@@H](N5CCCCC5)C3)C(=O)C43CCN(C(=O)C45CC(F)(C4)C5)CC3)nc(Nc3ccncc3F)c21 [Example 28]	0.1 nM
CC(C)n1cnc2cc(-c3ccc4c(c3)N([C@H]3C[C@@H](N5CCCC6(CC6)C5)C3)C(=O)C43CCN(C(=O)C4(C)COC4)CC3)nc(Nc3ccncc3F)c21 [Example 35]	0.2 nM
CC(C)n1cnc2cc(-c3ccc4c(c3)N([C@H]3C[C@@H](N5CCC[C@@H](F)C5)C3)C(=O)C43CCN(C4COC4)CC3)nc(Nc3ccncc3F)c21 [Example 79]	0.4 nM
CC(=O)N1CCC2(CC1)C(=O)N([C@H]1C[C@@H](N3CCCCC3)C1)c1cc(-c3cc4ncn(C(C)C)c4c(Nc4ccc(F)nc4F)n3)ccc12 [Example 70]	0.1 nM
Cc1cc(Nc2nc(-c3ccc4c(c3)N([C@H]3C[C@@H](N5CCCCC5)C3)C(=O)C4(C)C)cc3ncn(C(C)C)c23)c(F)cn1 [Example 54]	1.5 nM
CC(C)n1cnc2cc(-c3ccc4c(c3)N([C@H]3C[C@@H](N5CC6CC(C6)C5)C3)C(=O)C43CCN(C(=O)C4(C)COC4)CC3)nc(Nc3ccncc3F)c21 [Example 7]	0.2 nM
CC(C)n1cnc2cc(-c3ccc4c(c3)N([C@H]3C[C@@H](N5C[C@@H](C)[C@@H](C)C5)C3)C(=O)C4(C)C)nc(Nc3ccncc3F)c21 [Example 57]	0.4 nM
CC(C)n1cnc2cc(-c3ccc4c(c3)N([C@H]3C[C@@H](N5CC6CCC(C6)C5)C3)C(=O)C4(C)C)nc(Nc3ccncc3F)c21 [Example 62]	0.05 nM
CC[C@H](C)n1cnc2cc(-c3ccc4c(c3)N([C@H]3C[C@@H](N5CCCCC5)C3)C(=O)C43CCN(C4COC4)CC3)nc(Nc3ccncc3F)c21 [Example 89]	0.5 nM
CC(C)n1cnc2cc(-c3ccc4c(c3)N([C@H]3C[C@@H](N5CC6C(C5)C6(C)C)C3)C(=O)C4(C)C)nc(Nc3ccncc3F)c21 (some centres unmarked) [Example 60]	0.3 nM
CC(C)n1cnc2cc(-c3ccc4c(c3)N([C@H]3C[C@@H](N5CCCCC5)C3)C(=O)C4(C)C)nc(Nc3c(F)cncc3F)c21 [Example 65]	0.7 nM
CC(C)n1cnc2cc(-c3ccc4c(c3)N([C@H]3C[C@@H](N5CC(C)(C)C[C@@H]5CO)C3)C(=O)C43CCN(C4COC4)CC3)nc(Nc3ccncc3F)c21 [Example 39]	0.6 nM
CC(C)n1cnc2cc(-c3ccc4c(c3)N([C@H]3C[C@@H](N5CCCCCC5)C3)C(=O)C4(C)C)nc(Nc3ccncc3F)c21 [Example 59]	0.09 nM
CC[C@H](C)n1cnc2cc(-c3ccc4c(c3)N([C@H]3C[C@@H](N5CCC(C)(C)C5)C3)C(=O)C43CCN(C4COC4)CC3)nc(Nc3ccncc3F)c21 [Example 90]	0.3 nM
